In BindingDB's records for PubMed 32485533 (Isf College of Pharmacy, 2020):

Assay: Inhibition of human recombinant sPLA2-V at 1 uM

IC50: 3.22 µM
SMILES: COc1ccc(-c2nc3c(C(N)=O)cccc3[nH]2)cc1 [2-(4-methoxyphenyl)-1H-1,3-benzodiazole-4-carboxamide]
